Where two headings read alike, the source gives them in different places.
How the values were obtained:
[1] = Rat pharmacokinetic study, IV single bolus; conditions: male, Sprague-Dawley, in vivo, iv
[2] = Bidirectional permeability and efflux ratio in Caco‐2 cells; type: in vitro ADME, human; conditions: human, Caco-2
[3] = system: P‐glycoprotein; conditions: digoxin efflux, rat colon; cited from earlier work
[4] = Bidirectional permeability in parental MDCK cells; type: in vitro ADME, Canine; conditions: dog, MDCK
[5] = system: P‐glycoprotein; conditions: digoxin efflux, human colon, cited from earlier work
[6] = system: efflux transporters (eg, P‐gp, BCRP, MRPs); test: Classification as efflux transporter substrate

Vd [1]: 0.376 ± 0.013 L/kg | clearance [1]: 9.1 ± 1.3 mL/min/kg | half-life [1]: 1.3 ± 0.26 h | Papp A→B at 2 h, 5 μmol/L [2]: 0.477 ± 0.088 ×10⁻⁶ cm/s | Papp B→A at 2 h, 5 μmol/L [2]: 23 ± 1.6 ×10⁻⁶ cm/s | Papp A→B at 2 h, 1 μmol/L [4]: 2.22 ± 0.34 ×10⁻⁶ cm/s | Papp B→A at 2 h, 1 μmol/L [4]: 2.73 ± 0.45 ×10⁻⁶ cm/s | Papp at 2 h, 1 μmol/L [4]: 2.48 ± 0.46 ×10⁻⁶ cm/s | Efflux transporter substrate ([6]; Yes/No): Yes | Class (based on membrane permeability and ER value) ([6]; parental MDCK, MDR1‐MDCK, and Caco‐2 cell lines): Class II
SMILES: C[C@H]1O[C@@H](O[C@H]2[C@@H](O)C[C@H](O[C@H]3[C@@H](O)C[C@H](O[C@H]4CC[C@@]5(C)[C@H](CC[C@@H]6[C@@H]5C[C@@H](O)[C@]5(C)[C@@H](C7=CC(=O)OC7)CC[C@]65O)C4)O[C@@H]3C)O[C@@H]2C)C[C@H](O)[C@@H]1O [Digoxin, digoxin]
J max (maximal net flux) [3]: 2.2 ± 0.3 nmol/h/cm^2 | J max (maximal net flux) [5]: 3.1 ± 0.8 nmol/h/cm^2 | EC50 ([5]; read-out: EC50 (the concentration at which half‐maximal flux was achieved)): 58.7 ± 15.5 µM

Source: publication PMC7138916 (Pharmacology Research & Perspectives, 2020)
